Data as given in US9137997B2 (priority 2011, dated 2015).

melting point: 171 to 176 °C
Compound: Cc1ccc2sc3c(=O)n(C)c(=O)c=3sc2c1
